Laboratory results published in the CheMixHub ionic liquid set.

Experiment: xn = mol fraction of the nth substance listed

CC[n+]1ccn(C)c1.[Cl][Al-]([Cl])([Cl])[Cl] + CCn1cc[n+](C)c1.[Cl][Al-]([Cl])([Cl])[Cl+][Al-]([Cl])([Cl])[Cl]
100 kPa
Conditions	viscosity [mPa·s]
293.15 K, x2 = 0.2046	19.38
303.15 K, x2 = 0	15.69
303.15 K, x2 = 0.3035	14.44
303.15 K, x2 = 0.5041	13.77
303.15 K, x2 = 0.6955	13.21
323.15 K, x2 = 0.4003	9.033
323.15 K, x2 = 0.5962	8.65
323.15 K, x2 = 0.6955	8.468
323.15 K, x2 = 0.7963	8.286
333.15 K, x2 = 0.1016	8.016
333.15 K, x2 = 0.2046	7.821
333.15 K, x2 = 0.8901	6.726
343.15 K, x2 = 0.5962	6.037
343.15 K, x2 = 0.6955	5.906
353.15 K, x2 = 0.1016	5.806

CC[n+]1ccn(C)c1.N#C[S-] + CO
100 kPa
Conditions	electrical conductivity [S/m]	viscosity [mPa·s]
298.15 K, x1 = 0.5972	2.07	12.8
303.15 K, x1 = 0.3859	2.58	7
303.15 K, x1 = 1	–	20
308.15 K, x1 = 0.0988	2.57	1.9
308.15 K, x1 = 0.5006	2.65	7.9
308.15 K, x1 = 1	2.27	18
323.15 K, x1 = 0.1966	–	2.2
323.15 K, x1 = 0.3005	3.7	3.2
323.15 K, x1 = 0.804	3.13	9.1
323.15 K, x1 = 0.8997	3.08	10.4
323.15 K, x1 = 1	3.05	12

O=C1O[C@H]([C@@H](O)CO)C(O)=C1O + CCCC[n+]1ccn(C)c1.[Br-] + O
viscosity [mPa·s], 100 kPa
Conditions	293.15 K	298.15 K	303.15 K	308.15 K	313.15 K	318.15 K
x1 = 0.0003765, x2 = 0	1.008	0.898	0.804	0.725	0.66	0.607
x1 = 0.0007293, x2 = 0	1.013	0.903	0.809	0.73	0.665	0.612
x1 = 0.001087, x2 = 0	1.017	0.908	0.814	0.735	0.67	0.617
x1 = 0.001456, x2 = 0	1.023	0.914	0.819	0.74	0.674	0.621
x1 = 0.001827, x2 = 0	1.028	0.919	0.825	0.745	0.679	0.626
x1 = 0.002192, x2 = 0	1.035	0.924	0.831	0.75	0.684	0.632

C[N+]1(CCOCCOCC[N+]2(C)CCCC2)CCCC1.N#C[N-]C#N.N#C[N-]C#N + CC[n+]1ccn(C)c1.N#C[N-]C#N + O=S(=O)([N-]S(=O)(=O)C(F)(F)F)C(F)(F)F.[Li+]
electrical conductivity [S/m], 100 kPa
Conditions	298 K	303 K	313 K	323 K	333 K	343 K
x1 = 0.2606, x2 = 0.6156	0.561	0.658	0.963	1.27	1.61	1.94
x1 = 0.2713, x2 = 0.6408	0.911	1.01	1.37	1.71	2.12	2.54

NC(N)=O + O + CCCC[n+]1ccn(C)c1.F[B-](F)(F)F
298.15 K, 100 kPa
Conditions	viscosity [mPa·s]
x1 = 0.008492, x2 = 0.9402	1.98
x1 = 0.01695, x2 = 0.9318	2.01
x1 = 0.02496, x2 = 0.9237	2.06
x1 = 0.03322, x2 = 0.9155	2.05
x1 = 0.0408, x2 = 0.9079	2.15

CCCCCCCCCCCCOS(=O)(=O)[O-].[Na+] + CCO + O
298 K, 100 kPa, frequency 0.001 MHz
Conditions	electrical conductivity [S/m]
x2 = 0.02563, x3 = 0.9741	0.0809
x2 = 0.06861, x3 = 0.9309	0.103
x2 = 0.06862, x3 = 0.9311	0.0828

CCCCCCCCCCCCOS(=O)(=O)[O-].[Na+] + CC(C)O + O
298 K, 100 kPa, frequency 0.001 MHz
Conditions	electrical conductivity [S/m]
x2 = 0.04868, x3 = 0.9512	0.0308
x2 = 0.1358, x3 = 0.8641	0.0155

CCCCCCCCCCCC[P+](CCCC)(CCCC)CCCC.c1c[n-]nn1 + COCCOCCOCCOCCOC
100 kPa
Conditions	viscosity [mPa·s]
278.15 K, x2 = 0.305	361
278.15 K, x2 = 0.596	73
288.15 K, x2 = 0.123	549
288.15 K, x2 = 0.395	124
293.15 K, x2 = 0.123	383
293.15 K, x2 = 0.495	59
298.15 K, x2 = 0.305	107

CCCCCCCCn1cc[n+](C)c1.N#C[S-] + CN1CCCC1=O
viscosity [mPa·s], 101 kPa
Conditions	x1 = 0.0008419	x1 = 0.001327	x1 = 0.002048	x1 = 0.002709	x1 = 0.003576	x1 = 0.004058	x1 = 0.004657	x1 = 0.005393
288.15 K	2.152	2.16	2.177	2.191	2.199	2.204	2.213	2.229
298.15 K	1.809	1.817	1.827	1.834	1.846	1.857	1.865	1.872
308.15 K	1.572	1.58	1.591	1.599	1.61	1.621	1.631	1.641
318.15 K	1.354	1.37	1.393	1.407	1.417	1.434	1.447	1.458
